# In US11690834B2, “Composition, uses, and methods of treating spinal disc degeneration through sonic hedgehog signaling pathway” (New York Society For the Relief Of The Ruptured and …, priority 2017, dated 2023):
# Entries after “also recorded” stand apart in the source; their conditions may differ.
# Assays:
# one-year-old mouse disc = details: in vitro; cited from earlier work
# [1] = tested on: SHH signaling pathway in the intervertebral disc; assay: Intraperitoneal SAG in adult mice, real-time RT-qPCR of lumbar discs for SHH and its downstream targets; assay type: in vivo, mouse; details: i.p., 10 mg/kg body weight, every day for seven days, vs water
# Method: To test the potential for activation of SHH or SHH signaling for disc therapy and treatment of lower back pain, a small molecule agonist of hedgehog signaling pathway called SAG that activates the smoothened receptor downstream of the ligand was administered to mice. Adult mice were administered intraperitoneally either with water or SAG dissolved in water at a concentration of with 10 mg/kg body weight. The mice were treated every day for seven days. Next day, the lumbar discs were collected for RNA isolation and real-time RT-qPCR analysis for SHH and its downstream targets. […] Upregulation of SHH mRNA expression was also associated with an increase in the expression of its downstream targets Ptch1 and Gli1.
# [2] = tested on: SHH signaling pathway in the intervertebral disc; assay: as above; assay type: in vivo, mouse; details: middle-aged mice, intraperitoneal injection
smiles,measurement,setting,value
O=C1Nc2cc(Br)ccc2/C1=C1/Nc2ccccc2/C1=N\O [BIO],ECM production,one-year-old mouse disc,increased
same,increase in cell proliferation,one-year-old mouse disc,Not observed
same,stimulation of Hedgehog signaling,one-year-old mouse disc,increased
CNC1CCC(N(Cc2cccc(-c3ccncc3)c2)C(=O)c2sc3ccccc3c2Cl)CC1 (stereo not drawn) [SAG],expression of ECM marker Col2,[1],increased expression; also recorded: upregulation
same,expression of ECM marker Sox9,[1],increased expression; also recorded: upregulation
same,expression of downstream target Gli1,[1],increase; also recorded: upregulation
same,expression of downstream target Ptch1,[1],increase; also recorded: upregulation
same,mRNA expression of SHH compared to controls,[1],increased; also recorded: up-regulation
same,expression of ECM protein ACAN,[2],upregulation
